This test addresses T1, human GPR68 (Homo sapiens, UniProt Q15743).
T1 construct: encoding full-length human GPR68 (uniprot ID: Q15743); expressed in transfected cells; host or cells: HEK293T
The experiment in a line: GPR68 Biochemical Assay (Promega GloSensor cAMP assay, GPR68 antagonism). Conditions: 15 min. In kind it is cell-based. The protocol: GPR68 antagonism was determined using the Promega GloSensor™ CAMP assay (F. I. Wang et al., Methods 2021, S1046-2023 (21) 00249-8). HEK293T cells (obtained from ECACC, Cat 12022001, Lot no. 17E044) were cultured in T175 flasks (Greiner, Cat 660175) in DMEM (Gibco, Cat 11995-065) supplemented with 10% Fetal Bovine Serum (Gibco Cat 16000-044), and 100 u/mL Pen-Strep (Gibco, Cat 15140) at 37° C. and 5% CO2. GPR68 expression was achieved by transient transfection with a mammalian expression plasmid encoding full-length human GPR68 (uniprot ID: Q15743) under control of a CMV promoter. The day before transfection, cell media was aspirated and HEK293T cells were incubated with accutase (Sigma, Cat A6964) for 3-4 minutes 37° C. and 5% CO2 before being manually detached with excess DMEM and trituration. Cell density was determined by automated cell counting (Countess, Invitrogen) and adjusted to 6×10^6 cells/20 mL and transferred to 15 cm dishes (Thermo Fisher, Cat 130183) for overnight incubation at 37° C. and 5% CO2. The next day separate mammalian expression plasmids encoding hGPR68 (4 μg) and Promega GloSensor (8 μg) were diluted to 1 mL in Opti-MEM (Thermo Fisher Scientific, Cat 31985070) and incubated with 30 μL of lipofectamine 3000 (also diluted to 1 mL in Opti-MEM) for 15 minutes at room temperature and subsequently added dropwise to the plated cells. Post transfection cells were then incubated at 37° C. and 5% CO2 for at least 16 hours before transfer to assay plates the following day. Transfer was conducted by washing cells with PBS and incubating with accutase for 3-4 minutes 37° C. and 5% CO2 before being manually detached with excess DMEM and mild trituration. The suspension was then centrifuged at 192 RCF for 4 minutes in a 50 mL centrifuge tube (Greiner, Cat 227261).
Supernatant was removed by aspiration and the cell pellet was resuspended in DMEM+1% dialysed FBS (Gibco, Cat 26400-044) and 100 u/mL Pen-Strep to a cell density of 500 cells/μL. Cells were plated into poly-L-Lysine coated 384-well white assay plates (Corning, Cat 3570) at a final volume of 40 µL and a density of 20,000 cells/well before overnight incubation at 37° C. and 5% CO2. The following day media was manually ejected from the 384-well assay plate and replaced with 10 μL GloSensor substrate (Promega, Cat E1291) prepared in pH 8.0 assay buffer (1×HBSS, 10 mM HEPES, 10 mM MOPS). Cells were incubated with this solution for 60 minutes at room temperature in the dark. Test compounds or an equivalent volume of DMSO (vehicle) were added to compounds plates to create a 9-point, half-log concentration series for each compound with a maximum final assay concentration of 50 μM and a consistent final DMSO concentration of 0.5%. Assay buffer with 0.1% BSA and 0.01% ascorbic acid was prepared at three pHs: pH 8.0, pH 5.5 and pH 4.5. pH 8.0 and 4.5 were added to the compound plate as maximum and minimum effect controls whilst pH 5.5 was added to all compound wells to stimulate GPR68 to a level corresponding to […] of maximal stimulation after addition to the cells already in pH 8.0 (assay acceptance criteria range 70-90%). DMSO/Compound and buffer was added to the plated cells containing the GloSensor substrate and incubated for 15 minutes at room temperature before being read on a microplate reader (BMG PHERAstar, optic module LUM Plus with Gain 3600). Data was exported and analysed in excel and Graphpad prism (version 9). Assay QC acceptance criteria required the maximum and minimum controls to return a Z′≥0.5, the EC80 to be 80%±10% of expected and the reference ligand pIC50 to be within one-half-log unit of its historical IC50. Percent inhibition was calculated using the mean EC80 (pH 5.5) and mean minimum effect control (pH 8.0). Data were plotted as percentage inhibition, average±SEM. IC50, Emax, Emin, Actual max, actual min, R^2 and fit confidence were calculated using Graphpad Prism's sigmoidal dose-response function.
In general terms: Changes in cAMP serve as a functional read-out for many G protein-coupled receptors.

The mark [1] stands for this setting: HEK293T cells transiently expressing hGPR68, antagonism of pH 5.5 stimulated cAMP, read-out: hGPR68 IC50.
Where [2] appears, read: hGPR68 IC50, HEK293T cells transiently expressing hGPR68, antagonism of pH 5.5 stimulated cAMP.

Like-named read-outs stand apart in the source and are kept apart here.

T1 sequence (Q15743 whole entry): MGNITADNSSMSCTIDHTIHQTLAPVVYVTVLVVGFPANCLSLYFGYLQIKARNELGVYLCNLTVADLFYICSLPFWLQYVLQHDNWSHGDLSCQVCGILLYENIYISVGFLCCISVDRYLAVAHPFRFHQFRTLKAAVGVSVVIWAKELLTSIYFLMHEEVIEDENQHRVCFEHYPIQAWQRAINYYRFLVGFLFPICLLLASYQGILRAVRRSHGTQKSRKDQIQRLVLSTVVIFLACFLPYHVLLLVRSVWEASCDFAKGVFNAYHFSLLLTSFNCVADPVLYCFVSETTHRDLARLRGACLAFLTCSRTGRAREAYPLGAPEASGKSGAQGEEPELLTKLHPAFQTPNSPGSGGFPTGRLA

`NC(=O)c1c(-c2cccnn2)nn2c(C(=O)NC3Cc4ccccc4C3)ccnc12` [Compound 22, N7-indan-2-yl-2-pyridazin-3-yl-pyrazolo[1,5-a]pyrimidine-3,7-dicarboxamide]: the IC50 under setting [1] was 0.5 to 5 µM. Consider `CN(C)CCNc1nn2c(C(=O)NC3Cc4ccccc4C3)ccnc2c1C(N)=O` [Compound 23, 2-[2-(dimethylamino)ethylamino]-N7-indan-2-yl-pyrazolo[1,5-a]pyrimidine-3,7-dicarboxamide], for which the IC50 under setting [1] was 50 to 100 µM. In the case of `CN1CC(c2nn3c(C(=O)NC4Cc5ccccc5C4)ccnc3c2C(N)=O)C1` [Compound 24, N7-indan-2-yl-2-(1-methylazetidin-3-yl)pyrazolo[1,5-a]pyrimidine-3,7-dicarboxamide], the IC50 under setting [1] lay within 50 to 100 µM.

Regarding `NC(=O)c1c(-c2ncco2)nn2c(C(=O)NC3CC(F)(F)C3)ccnc12` [Compound 25, N7-(3,3-difluorocyclobutyl)-2-oxazol-2-yl-pyrazolo[1,5-a]pyrimidine-3,7-dicarboxamide], the IC50 under setting [1] was 0.5 to 5 µM. For the compound `Cc1nc2c(C(=O)NC3CC(F)(F)C3)ccnn2c1C(N)=O` [Compound 26, N8-(3,3-difluorocyclobutyl)-2-methyl-imidazo[1,2-b]pyridazine-3,8-dicarboxamide], the IC50 under setting [1] was in the range of 0.05 to 0.5 µM.

In turn, `CC(C)OCc1nn2c(C(=O)NC3Cc4ccccc4C3)ccnc2c1C(N)=O` [Compound 27, N7-indan-2-yl-2-(isopropoxymethyl)pyrazolo[1,5-a]pyrimidine-3,7-dicarboxamide] registered a 50% inhibitory concentration (IC50) under setting [2] of under 0.05 µM.

`CC(C)OCc1nn2c(C(=O)NC3CC(F)(F)C3)ccnc2c1C(N)=O` [Compound 28, N7-(3,3-difluorocyclobutyl)-2-(isopropoxymethyl)pyrazolo[1,5-a]pyrimidine-3,7-dicarboxamide] registered an IC50 under setting [2] of 5 to 50 µM. Regarding `CN(C)Cc1nn2c(C(=O)NC3Cc4ccccc4C3)ccnc2c1C(N)=O` [Compound 29, 2-[(dimethylamino)methyl]-N7-indan-2-yl-pyrazolo[1,5-a]pyrimidine-3,7-dicarboxamide], the IC50 under setting [1] was 0.5 to 5 µM.

For `CNCc1nn2c(C(=O)NC3Cc4ccccc4C3)ccnc2c1C(N)=O` [Compound 30, N7-indan-2-yl-2-(methylaminomethyl)pyrazolo[1,5-a]pyrimidine-3,7-dicarboxamide], the IC50 under setting [1] was 0.5 to 5 µM. `O=C(NC1Cc2ccccc2C1)c1cccc2c(-c3ncco3)cnn12` [Compound 31, N-indan-2-yl-3-oxazol-2-yl-pyrazolo[1,5-a]pyridine-7-carboxamide]: the 50% inhibitory concentration (IC50) under setting [1] lay within 5 to 50 µM.

`Cc1nn2c(C(=O)NC3CC(F)(F)C3)c(-c3cn[nH]c3)cnc2c1C(N)=O` [Compound 32, N7-(3,3-difluorocyclobutyl)-2-methyl-6-(1H-pyrazol-4-yl)pyrazolo[1,5-a]pyrimidine-3,7-dicarboxamide]: the IC50 under setting [1] is 0.5 to 5 µM. `NC(=O)c1c(-c2ncco2)nn2c(C(=O)NC3Cc4ccccc4C3)ccnc12` [Compound 33, N7-indan-2-yl-2-oxazol-2-yl-pyrazolo[1,5-a]pyrimidine-3,7-dicarboxamide]: under setting [2], the IC50 is under 0.05 µM. For `CNc1nn2c(C(=O)NC3CC(F)(F)C3)ccnc2c1C(N)=O` [Compound 34, N7-(3,3-difluorocyclobutyl)-2-(methylamino)pyrazolo[1,5-a]pyrimidine-3,7-dicarboxamide], under setting [1], the IC50 is under 0.05 µM.

As to `CN(C)c1nn2c(C(=O)NC3CC(F)(F)C3)ccnc2c1C(N)=O` [Compound 35, N7-(3,3-difluorocyclobutyl)-2-(dimethylamino)pyrazolo[1,5-a]pyrimidine-3,7-dicarboxamide], the IC50 under setting [1] lay within 0.5 to 5 µM.

Turning to `NC(=O)c1c(-c2ccccc2F)nn2c(C(=O)NC3Cc4ccccc4C3)cccc12` [Compound 36, 2-(2-fluorophenyl)-N7-indan-2-yl-pyrazolo[1,5-a]pyridine-3,7-dicarboxamide], the half-inhibitory concentration (IC50) under setting [1] was 0.5 to 5 µM. Compound `NC(=O)c1c(C2CCOC2)nn2c(C(=O)NC3Cc4ccccc4C3)ccnc12` (stereo not shown) [Compound 37, N7-indan-2-yl-2-tetrahydrofuran-3-yl-pyrazolo[1,5-a]pyrimidine-3,7-dicarboxamide] showed an IC50 under setting [2] of under 0.05 µM.

What is called IC50 is the concentration that inhibits the measured activity by half.

Source of the values: patent US20260308159A1, “BICYCLIC HETEROARYLAMIDES HAVING GPR68 MODULATING ACTIVITY” (RECURSION PHARMACEUTICALS, INC., priority 2023, published 2026).
